Data as given in patent US12391692B2, “Spiro ring-containing quinazoline compound” (WIGEN BIOMEDICINE TECHNOLOGY (SHANGHAI) CO., LTD., priority 2020, dated 2025).

What was measured:
pERK level in H358 cells = experiment: pERK and ERK protein content assay in H358 cells (ELISA); assay type: cell-based; settings: Homo sapiens, NCI-H358, pERK/ERK ratio vs DMSO group, compound 1 μM, 24 h, read-out: Inhibition rate (%)
Outline: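 Percent inhibition of pERK relative to DMSO, from the ELISA pERK/ERK ratio in lysed H358 cells. Compound applied at 1 μM for 24 h after one day of growth.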

H358 cells = experiment: Antiproliferative activity against H358 cells (Cell Titer Glow, ultra-low attachment plate); assay type: cell-based; settings: Homo sapiens, NCI-H358, 72 h, three days after addition of compound
Procedure: 2500 H358 cells were seeded in a 96-well ultra-low attachment plate (corning, 7007). After one day of growth, a serially diluted compound (a maximum concentration of 5 μM, 5-fold dilution, a total of five doses) was added. Three days after the addition of the compound, Cell Titer Glow (Promega, G9681) was added to evaluate pellet growth, and the IC50 value was calculated.

[1] = test system: human pancreatic cancer Mia PaCa-2 xenograft tumors; experiment: Antitumor activity in mice, Mia PaCa-2 xenograft; assay type: in vivo; settings: Mia PaCa-2 xenograft in nude mice; for Anti-tumor effect (regression): 10 mg/kg, qd*21, intragastric; for in vivo activity compared with control drug B: 10 mg/kg/day, 21 days
Procedure: Human pancreatic cancer Mia PaCa-2 cells were cultured conventionally in 1640 medium containing 10% fetal bovine serum in a 37° C./5% CO2 incubator. After being subcultured, the cells were collected when they reached the desired amount. 1×10^7 Mia PaCa-2 cells were injected into the left dorsal side of each nude mouse, and the animals were randomly grouped for administration after tumors grew to 150 mm^3. The groups were as follows: 1) solvent control group, 8 mice; 2) compound 6 group, compound 14 group, compound 28 group, compound 44 group, compound 60 group, compound 103 group and control drug B (Example 35 in WO2018/143315), 8 mice in each group. The mice in the solvent control group was intragastrically administered with 0.5% CMC-Na once a day; and the mice in the compound groups were intragastrically administered with 0.5% CMC-Na suspension once a day. On Tuesday and Thursday each week, tumor volumes and body weight of the mice were measured, and the nude mice were sacrificed on day 21 during the treatment period.

Structure (SMILES) | IC50 (H358 cells) | inhibition at 1 µM (pERK level in H358 cells) | Anti-tumor effect (regression) [1] | in vivo activity compared with control drug B [1]
C=CC(=O)N1CC2(CCN(c3nc(N4CC(N5CC(O)C5)C4)nc4c(OCC(F)(F)F)c(-c5c(C)ccc6[nH]ncc56)c(C5CC5)cc34)CC2)C1 [Compound 44] | < 300 nM | > 90% | 23% regression | 
C=CC(=O)N1CC2(CCN(c3nc(N4CC(N5CC6(CC6)C5)C4)nc4c(OCC(F)(F)F)c(-c5c(F)ccc6[nH]ncc56)c(C5CC5)cc34)CC2)C1 [Compound 103] | < 300 nM | > 90% | 39% regression | stronger in vivo activity than the control drug B
C=CC(=O)N1CC2(CCN(c3nc(N4CC(OC5CN(C)C5)C4)nc4c(OCC(F)(F)F)c(-c5c(C)ccc6[nH]ncc56)c(C5CC5)cc34)CC2)C1 [Compound 14] | < 300 nM | > 90% | 37% regression | stronger in vivo activity than the control drug B
C=CC(=O)N1CC2(CCN(c3nc(N4CC5(CC(=C)CN5C)C4)nc4c(OCC(F)(F)F)c(-c5c(C)ccc6[nH]ncc56)c(C5CC5)cc34)CC2)C1 [Compound 125] | < 300 nM | > 90% |  | 
C=CC(=O)N1CC2(CCN(c3nc(N4CC(OC5CCC5)C4)nc4c(OCC(F)(F)F)c(-c5c(C)ccc6[nH]ncc56)c(C5CC5)cc34)CC2)C1 [Compound 13] | < 300 nM | > 90% |  | 
C=CC(=O)N1CC2(CCN(c3nc(N4CC(N5CC6(CC6)C5)C4)nc4c(OCC(F)(F)F)c(-c5c(C)ccc6[nH]cnc56)c(C5CC5)cc34)CC2)C1 [Compound 107] | < 300 nM | > 90% |  | 
C=CC(=O)N1CC2(CCN(c3nc(N4CC(CN5CCC5)C4)nc4c(OCC(F)(F)F)c(-c5c(C)ccc6[nH]ncc56)c(C5CC5)cc34)CC2)C1 [Compound 6] | < 300 nM | > 90% | 35% regression | stronger in vivo activity than the control drug B

The next lines start with results.

IC50 (H358 cells) | Structure (SMILES) | inhibition at 1 µM (pERK level in H358 cells) | Anti-tumor effect (regression) [1] | in vivo activity compared with control drug B [1]
< 300 nM | C=CC(=O)N1CC2(CCN(c3nc(N4CC(N5CC6(CC6)C5)C4)nc4c(OCC(F)(F)F)c(-c5c(C)ccc6[nH]ncc56)c(C5CC5)cc34)CC2)C1 [Compound 28] | > 90% | 42% regression | stronger in vivo activity than the control drug B
< 300 nM | C=CC(=O)N1CC2(CCN(c3nc(N4CC(C)(N5CCC5)C4)nc4c(OCC(F)(F)F)c(-c5c(C)ccc6[nH]ncc56)c(C5CC5)cc34)CC2)C1 [Compound 60] | > 90% | 30% regression | stronger in vivo activity than the control drug B
300 to 1000 nM | C=CC(=O)N1CC2(CCN(c3nc(N4CC5(CCC5)C4)nc4c(OCC(F)(F)F)c(-c5c(C)ccc6[nH]ncc56)c(C5CC5)cc34)CC2)C1 [Compound 66] | 50 to 90% |  | 
